Among the data in ChEMBL document CHEMBL1201862, “PubChem BioAssay data set” (2004) are IC50, AC50 and EC50 values, retold here.

Test [1] concerns the target T1, Sentrin-specific protease 8 (Homo sapiens, UniProt Q96LD8).
T1 sequence (Q96LD8 whole entry): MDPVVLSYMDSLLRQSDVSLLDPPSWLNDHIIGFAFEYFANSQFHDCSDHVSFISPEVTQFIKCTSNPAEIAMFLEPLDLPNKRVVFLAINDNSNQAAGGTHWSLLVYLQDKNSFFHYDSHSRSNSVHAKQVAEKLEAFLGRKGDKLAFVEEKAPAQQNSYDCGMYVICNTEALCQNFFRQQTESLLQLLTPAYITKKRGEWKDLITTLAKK
The test is classed as functional.

The target in another test is T2, Caspase-3 (Homo sapiens, UniProt P42574).
T2 sequence (P42574 whole entry): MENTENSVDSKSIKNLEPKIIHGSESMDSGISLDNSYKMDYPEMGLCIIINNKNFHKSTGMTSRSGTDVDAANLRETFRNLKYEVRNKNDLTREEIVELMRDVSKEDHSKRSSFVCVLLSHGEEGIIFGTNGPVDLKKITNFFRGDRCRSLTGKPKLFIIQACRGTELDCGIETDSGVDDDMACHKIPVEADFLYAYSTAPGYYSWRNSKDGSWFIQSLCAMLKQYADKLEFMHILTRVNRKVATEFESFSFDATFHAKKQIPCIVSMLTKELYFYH
Briefly: Dose-response confirmation of uHTS inhibitor hits of Sentrin-Specific Protease 8 in a Caspase-3 Fluorescence assay. The test is classed as functional.

The target of test [2] is T1, Sentrin-specific protease 8. In kind it is functional. This is another data set of the same source.
The target in test [3] is Fructose-bisphosphate aldolase (Mycobacterium tuberculosis, UniProt P9WQA3). The test can be described thus: Fluorescence-based biochemical high throughput dose response assay for inhibitors of the fructose-bisphosphate aldolase (FBA) of M. tuberculosis. In kind it is functional.
Test [4] can be described thus: general mammalian cell viability loss – inhibitor set, cherry-pick, set 2, cytotoxicity control for miR-122 modulator project, dose response (AID 720697). The test is classed as functional, cell-based.
The nature of test [5]: general mammalian cell viability loss – activator set, cherry-pick, cytotoxicity control for miR-122 modulator project, dose response (AID 720690).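 Note: HEK293T human cells scored for general mammalian cytotoxicity.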 The test is classed as functional, cell-based.
Test [6] in a line: activation of miR-122 Renilla sensor silencing – cell-based, Huh7 psiCHECK-miR122, Renilla luciferase, cherry-picked, dose response (AID 651956).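 Note: huh7 hepatoma cells stably carrying a psiCHECK-2 miR-122 sensor plasmid; renilla luciferase signal reporting endogenous miR-122 activity after 48 h compound exposure.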 In kind it is functional.
A short description of test [7]: viability loss in CEM21 cells – cell-based, CellTiter-Glo luminescence, cherry-picked, cytotoxicity control for viral fusion inhibitor project, dose response (AID 652042).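 Note: potency for signal decrease meaning cytotoxicity.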 The test is classed as functional.
Another test deals with Paired box protein Pax-8 (Homo sapiens, UniProt Q06710). The test can be described thus: PAX8 transcriptional activity inhibition in RMG-I – RMG-I cells, luciferase, cherry-pick, dose response (AID 687027).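 Note: luciferase reporter driven by Pax8 target thyroperoxidase promoter measured by SteadyGlo luminescence.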 The test is classed as functional, cell-based.
Test [8] can be described thus: HIV-1 AD8 envelope cell-cell fusion blockers – cherry-pick, dose response (AID 652062).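 Note: luciferase signal from cell-cell fusion driven by HIV-1 clade B AD8 Env; potency is for inhibitors of fusion seen as a drop in luminescence.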 In kind it is functional, cell-based.
Test [9] can be described thus: blockers of HIV-1 ZM109 envelope-driven cell-cell fusion – HeLa effector, CEM target cells, luciferase, cherry-pick, dose response (AID 652058).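 Note: luciferase signal from HIV-1 Env mediated cell-cell fusion of effector and target cells.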 In kind it is functional, cell-based.
A short description of test [10]: A549 cell cytotoxicity, dose response, cytotoxicity control, plate reader, cherry-pick, antagonist series (AID 743412). The test is classed as functional, cell-based.
Test [11] is described as follows: blockade of melanocortin 4 receptor signaling – cell-based, plate reader, cherry pick, counter-screen for LGR2 antagonist project, dose response (AID 743444).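 Note: transfected HEK 293 cells stimulated with alpha-MSH peptide; potency of inhibitors of the alpha-MSH evoked signal.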 In kind it is functional. For orientation: The purpose of a counterscreen is to sort out artefacts and off-target activity.
A short description of test [12]: blockers of HIV-1 envelope-mediated cell-cell fusion – cherry-pick, dose response (AID 652057). The test is classed as functional, cell-based.
Test [13] in a line: reduction of Shn3 3'UTR-driven luciferase in osteoblasts – cell-based, Clone20 osteoblasts, firefly luciferase, cherry-picked, dose response (AID 624132).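 Note: firefly luciferase luminescence from reporter carrying the Shn3 3'UTR in osteoblasts.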 The test is classed as functional.
Test [14] in a line: blockers of bursicon-stimulated LGR2 cAMP reporter – cell-based, HEK293, CRE-luciferase reporter, cherry pick, set 2, dose response (AID 743343).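 Note: transfected cells were stimulated with diluted bursicon conditioned medium after compound addition.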 In kind it is functional. (In general: In a reporter assay the amount or activity of a reporter protein is the signal.)
The nature of test [15]: toxicity toward HepG2 liver cells – cell-based, plate reader, cherry-pick, antagonist series, cytotoxicity control, dose response (AID 743416). The test is classed as functional.
Test [16] can be described thus: loss of viability in HepG2 cells – cell-based, CellTiter-Glo, cherry-picked, cytotoxicity control for Shn3 inhibitor project, dose response (AID 624134). In kind it is functional. In general terms: ATP-based viability assays read luminescence as a measure of living cells.
Test [17] can be described thus: off-target signal loss in HeLa-CEM21 co-culture – HeLa F-luc CTL cells, cherry-picked, counter-screen for HIV-1 Env fusion inhibitor project, dose response (AID 652040).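 Note: potency for signal decrease marking cytotoxic or nonspecific inhibition.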 In kind it is functional, cell-based.
Test [18] in a line: NIH3T3 cell viability loss – ATP luminescence, mouse fibroblasts, counter-screen, dose response (AID 2010).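 Note: cells exposed to compound for about 90 hours before reading.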 In kind it is functional, cell-based. The note with it: NIH3T3.
The next test has as its system HeLa. The test can be described thus: viability loss in HeLa cells – cell-based, ATP luminescence, cherry-pick samples, cytotoxicity control, dose response (AID 687004). In kind it is functional. The conditions noted are these: Homo sapiens.
Test [19] in a line: Trypanosoma cruzi growth suppression in host cells – NIH3T3 host cells, beta-gal luminescence, confirmation (AID 2044).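 Note: intracellular parasites grown in NIH/3T3 mouse fibroblasts as host cells; luminescent beta-galactosidase reporter signal from transgenic T. cruzi replicating inside host cells; inhibitors lower the luminescence signal.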 The test is classed as functional, cell-based.
Test [20] can be described thus: viability loss in HepG2 hepatoma cells – cell-based, ATP luminescence, cherry-pick, activator set 2, cytotoxicity control, dose response (AID 1053143). The test is classed as functional.
The target of test [21] is T3, SUMO-activating enzyme (Homo sapiens, UniProt Q9UBT2). Briefly: blockers of UBC9-mediated SUMO conjugation – biochemical, AlphaScreen, SUMOylation inhibitor project, confirmation (AID 2018). In kind it is functional.
A further test addresses Albumin (Bos taurus, UniProt P02769). The test can be described thus: Counterscreen for inhibitors of T-cell receptor (TCR)-CD3 interaction: Fluorescence-based biochemical high throughput dose response assay to identify inhibitors of T-cell receptor (TCR)-CD3 interaction using a TAMRA-labeled BSA probe. In kind it is functional.
Test [22] concerns the target T3, SUMO-activating enzyme. The test can be described thus: blockers of SAE1/SAE2–UBC9 SUMO transfer – biochemical, HTRF, uHTS, primary screen (AID 2006). The test is classed as protein-complex assay.
A short description of test [23]: Luminescence Cell-Based Dose Confirmation HTS to Identify Activators of 5'UTR Stem-Loop Driven Alpha-Synuclein mRNA Translation in H4 Neuroglioblastoma Cells. [Related pubchem assays: 1829 (Project Summary), 1814 (Primary HTS)]. The test is classed as functional.
A short description of test [24]: Counterscreen for activators of the function of SWI/SNF related, matrix associated, actin dependent regulator of chromatin, subfamily a, member 2 (SMARCA2, BRM): Luminescence-based cell-based high throughput dose response assay to identify non-selective compounds using the VP16 reporter assay. In kind it is functional.
The subject of a further test is H4. The test can be described thus: Luminescence Cell-Based Dose Response HTS to Identify Activators of 5'UTR Stem-Loop Driven Prion Protein mRNA Translation in H4 Neuroglioblastoma Cells. [Related pubchem assays: 1829 (Project Summary), 1814 (Primary HTS)]. The test is classed as functional. The conditions noted are these: Homo sapiens.
Test [25] in a line: Luminescence Cell-Based Dose Response HTS to Identify Activators of Luciferase Translation or Activity in H4 […] Cells. [Related pubchem assays: 1829 (Project Summary), 1814 (Primary HTS)]. In kind it is functional.
Test [26] deals with SWI/SNF-related matrix-associated actin-dependent regulator of chromatin subfamily A member 2 (Homo sapiens, UniProt P51531). The test can be described thus: Luminescence-based cell-based high throughput dose response assay to identify activators of the function of SWI/SNF related, matrix associated, actin dependent regulator of chromatin, subfamily a, member 2 (SMARCA2, BRM). In kind it is functional.

Activity calls are given as the source filed them.

T3 sequence (Q9UBE0 whole entry): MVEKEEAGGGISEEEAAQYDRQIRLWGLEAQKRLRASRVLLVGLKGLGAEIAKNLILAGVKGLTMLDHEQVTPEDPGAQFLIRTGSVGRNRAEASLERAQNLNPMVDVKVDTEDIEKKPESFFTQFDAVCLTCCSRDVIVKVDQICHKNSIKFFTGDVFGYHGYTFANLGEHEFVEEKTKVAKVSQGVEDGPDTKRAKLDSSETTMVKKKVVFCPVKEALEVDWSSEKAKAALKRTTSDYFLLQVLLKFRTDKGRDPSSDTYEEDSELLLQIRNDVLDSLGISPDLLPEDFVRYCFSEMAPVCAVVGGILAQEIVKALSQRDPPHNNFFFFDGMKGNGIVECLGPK
T3 sequence (Q9UBT2 whole entry): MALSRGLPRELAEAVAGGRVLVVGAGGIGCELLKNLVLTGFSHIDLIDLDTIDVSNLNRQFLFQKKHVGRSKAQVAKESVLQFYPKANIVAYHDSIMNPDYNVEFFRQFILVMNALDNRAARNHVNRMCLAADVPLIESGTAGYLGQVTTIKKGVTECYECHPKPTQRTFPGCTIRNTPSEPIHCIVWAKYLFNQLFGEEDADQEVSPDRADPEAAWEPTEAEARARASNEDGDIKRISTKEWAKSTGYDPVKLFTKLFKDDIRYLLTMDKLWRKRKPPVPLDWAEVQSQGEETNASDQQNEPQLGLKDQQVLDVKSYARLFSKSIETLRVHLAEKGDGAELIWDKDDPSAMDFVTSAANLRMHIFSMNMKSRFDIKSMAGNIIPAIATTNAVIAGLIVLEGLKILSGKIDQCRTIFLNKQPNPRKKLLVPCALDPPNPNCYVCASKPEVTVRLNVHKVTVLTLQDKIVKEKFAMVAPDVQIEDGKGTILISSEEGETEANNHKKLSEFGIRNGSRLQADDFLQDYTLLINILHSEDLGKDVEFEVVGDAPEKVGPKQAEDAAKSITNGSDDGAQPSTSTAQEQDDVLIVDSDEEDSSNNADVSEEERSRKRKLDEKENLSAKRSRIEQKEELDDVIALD
Sequence of SWI/SNF-related matrix-associated actin-dependent regulator of chromatin subfamily A member 2 (P51531 whole entry): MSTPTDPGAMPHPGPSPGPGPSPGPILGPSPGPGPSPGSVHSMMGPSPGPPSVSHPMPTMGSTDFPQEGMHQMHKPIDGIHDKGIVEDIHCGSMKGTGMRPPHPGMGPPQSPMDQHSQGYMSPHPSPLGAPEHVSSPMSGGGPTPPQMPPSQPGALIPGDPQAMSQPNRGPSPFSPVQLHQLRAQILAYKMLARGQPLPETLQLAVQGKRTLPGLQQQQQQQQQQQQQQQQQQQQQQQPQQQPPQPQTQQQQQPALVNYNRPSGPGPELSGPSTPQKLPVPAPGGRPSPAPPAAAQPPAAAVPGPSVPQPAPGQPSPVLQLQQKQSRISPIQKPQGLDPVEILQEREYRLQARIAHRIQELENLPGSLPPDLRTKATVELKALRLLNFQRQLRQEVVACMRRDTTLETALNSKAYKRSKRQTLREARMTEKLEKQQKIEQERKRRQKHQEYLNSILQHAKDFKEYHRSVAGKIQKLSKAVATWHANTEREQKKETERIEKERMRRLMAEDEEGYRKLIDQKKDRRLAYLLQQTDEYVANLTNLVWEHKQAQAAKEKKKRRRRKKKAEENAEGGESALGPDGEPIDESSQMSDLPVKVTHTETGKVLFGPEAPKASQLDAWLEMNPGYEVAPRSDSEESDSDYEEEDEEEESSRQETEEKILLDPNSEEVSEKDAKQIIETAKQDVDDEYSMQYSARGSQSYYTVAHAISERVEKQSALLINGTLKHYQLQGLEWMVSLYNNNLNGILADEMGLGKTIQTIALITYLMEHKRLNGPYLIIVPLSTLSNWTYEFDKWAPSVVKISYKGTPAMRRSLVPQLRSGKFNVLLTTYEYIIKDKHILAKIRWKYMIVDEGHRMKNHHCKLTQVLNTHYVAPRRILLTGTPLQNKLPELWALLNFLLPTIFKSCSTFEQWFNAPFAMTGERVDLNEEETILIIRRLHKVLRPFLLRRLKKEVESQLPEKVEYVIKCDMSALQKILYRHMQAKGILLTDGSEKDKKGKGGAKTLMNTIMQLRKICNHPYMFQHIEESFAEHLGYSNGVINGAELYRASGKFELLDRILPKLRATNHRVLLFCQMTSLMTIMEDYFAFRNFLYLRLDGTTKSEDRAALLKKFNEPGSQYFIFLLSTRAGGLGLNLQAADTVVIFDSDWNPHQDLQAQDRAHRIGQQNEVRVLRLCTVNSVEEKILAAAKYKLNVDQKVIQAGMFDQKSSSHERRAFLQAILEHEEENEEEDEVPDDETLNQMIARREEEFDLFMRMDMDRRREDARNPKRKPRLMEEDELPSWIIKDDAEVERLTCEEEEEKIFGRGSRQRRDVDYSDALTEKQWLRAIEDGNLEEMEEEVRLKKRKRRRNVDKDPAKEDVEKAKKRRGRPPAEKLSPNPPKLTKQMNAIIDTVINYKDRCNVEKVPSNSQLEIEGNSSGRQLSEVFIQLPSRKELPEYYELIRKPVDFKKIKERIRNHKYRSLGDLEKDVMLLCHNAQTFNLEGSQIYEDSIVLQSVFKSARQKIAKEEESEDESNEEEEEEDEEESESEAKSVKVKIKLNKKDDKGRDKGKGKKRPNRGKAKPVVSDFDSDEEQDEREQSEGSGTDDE
Sequence of Fructose-bisphosphate aldolase (P9WQA3 whole entry): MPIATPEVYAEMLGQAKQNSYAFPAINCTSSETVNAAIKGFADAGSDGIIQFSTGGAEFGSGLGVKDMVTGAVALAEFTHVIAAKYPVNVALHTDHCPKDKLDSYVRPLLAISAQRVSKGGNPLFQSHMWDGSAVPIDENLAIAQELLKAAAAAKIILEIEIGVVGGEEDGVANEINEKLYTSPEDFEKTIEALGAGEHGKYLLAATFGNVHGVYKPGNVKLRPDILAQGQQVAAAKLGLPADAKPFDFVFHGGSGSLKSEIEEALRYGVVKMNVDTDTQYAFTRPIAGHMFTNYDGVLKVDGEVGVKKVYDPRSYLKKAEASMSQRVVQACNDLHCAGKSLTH
Sequence of Paired box protein Pax-8 (Q06710 whole entry, the tested form may be a part): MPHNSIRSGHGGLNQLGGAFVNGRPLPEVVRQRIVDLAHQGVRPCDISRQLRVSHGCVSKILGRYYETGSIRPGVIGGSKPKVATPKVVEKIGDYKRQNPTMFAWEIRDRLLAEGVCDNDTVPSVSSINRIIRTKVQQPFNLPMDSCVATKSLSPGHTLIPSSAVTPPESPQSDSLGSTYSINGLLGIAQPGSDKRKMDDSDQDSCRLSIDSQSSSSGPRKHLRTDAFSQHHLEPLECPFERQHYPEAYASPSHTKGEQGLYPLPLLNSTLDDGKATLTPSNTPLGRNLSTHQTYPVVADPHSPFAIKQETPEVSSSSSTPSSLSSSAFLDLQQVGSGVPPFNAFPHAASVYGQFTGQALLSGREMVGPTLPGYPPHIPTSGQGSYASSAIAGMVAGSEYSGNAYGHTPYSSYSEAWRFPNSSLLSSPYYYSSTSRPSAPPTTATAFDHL
Sequence of Albumin (P02769 whole entry): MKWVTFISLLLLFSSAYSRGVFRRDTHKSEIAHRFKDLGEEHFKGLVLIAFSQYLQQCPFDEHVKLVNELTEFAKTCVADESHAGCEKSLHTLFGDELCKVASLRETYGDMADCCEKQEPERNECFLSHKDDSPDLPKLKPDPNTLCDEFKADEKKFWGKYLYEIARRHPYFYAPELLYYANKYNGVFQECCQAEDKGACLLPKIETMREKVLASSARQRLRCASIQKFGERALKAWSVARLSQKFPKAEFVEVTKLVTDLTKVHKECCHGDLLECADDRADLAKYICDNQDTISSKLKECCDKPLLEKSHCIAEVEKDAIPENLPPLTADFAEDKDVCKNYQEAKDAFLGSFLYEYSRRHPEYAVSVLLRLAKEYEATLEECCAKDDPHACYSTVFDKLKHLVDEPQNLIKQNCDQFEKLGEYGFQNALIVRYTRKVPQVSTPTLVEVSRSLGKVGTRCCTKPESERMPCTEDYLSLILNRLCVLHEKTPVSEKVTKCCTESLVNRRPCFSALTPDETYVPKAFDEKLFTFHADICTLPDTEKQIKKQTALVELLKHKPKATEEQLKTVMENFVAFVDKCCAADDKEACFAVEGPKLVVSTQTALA

A word on the IC50: it is the concentration needed to halve the response being measured. Consider `O=C1CC(N2CCOCC2)=NN1c1ccc([N+](=O)[O-])cc1`, for which the half-maximal inhibitory concentration (IC50) was 11.7 µM (active) in test [1], 100 µM (inactive) at Caspase-3 and 24.6 µM (active) in test [2].

Turning to `Cc1ccc(-c2nc3ncccc3o2)cc1NC(=O)C(C)C`, the IC50 in test [3] was 1.5 µM (active).

A word on the AC50: it is the concentration at which the activity in the assay is half-maximal. Regarding `C[C@@H]1CN([C@@H](C)CO)C(=O)c2cc(NC(=O)Nc3cccc4ccccc34)ccc2O[C@@H](C)CCCCO[C@@H]1CN(C)CC1CCCCC1`, the values for the AC50 in test [4], in [5] and in test [6] were 6.05 µM (active), 30.5 µM (active) and 11.6 µM (active), respectively.

Consider `O=C(Nc1cccc(-c2ccc(N3CCCCC3)nn2)c1)C(F)(F)F`, for which the half-maximal activity concentration (AC50) in test [7] was 34.1 µM (active); on Paired box protein Pax-8, 3.04 µM (active); in [8], 6.31 µM (active); in [9] it was 34.1 µM (active); in [10] it was 30.2 µM (active); in test [11], 1.41 µM (active). Further, the concentration at half-maximal activity (AC50) is 3.47 µM (active) in [12]; 9.07 µM (active) in test [13]; 2.61 µM (active) in test [14]; 43.6 µM (active) in test [15]; 33.1 µM (active) in test [16]; 9.6 µM (active) in test [17].

A word on the EC50: it is the midpoint of the concentration-response curve. Consider `CCOc1ccc(C(=O)NC(=S)Nc2ccccc2N2CCC(C)CC2)cc1[N+](=O)[O-]`, for which the EC50 is > 60 µM (not active) in test [18] and 1.32 µM (active) in [19]. In addition, the AC50 with HeLa was > 52 µM (inactive).

As to `O=C(NCCOc1ccccc1F)C1CC(=O)N(Cc2ccccc2)C1` (configuration not stated), the AC50 in [20] is > 52 µM (inactive).

Regarding `Cc1c(NC(=S)N/N=C/c2cc([N+](=O)[O-])ccc2O)c(=O)n(-c2ccccc2)n1C`, the concentration for half-maximal inhibition (IC50) is 1.64 µM (active) on SUMO-activating enzyme [21], > 94.1 µM (inactive) on Albumin and 11.4 µM (active) on SUMO-activating enzyme [22].

In the case of `CC(=O)Nc1ccc2c(c1)C(=O)N(C)[C@@H]1CC[C@H](CC(=O)NC3CCCCC3)O[C@H]1CO2`, the half-maximal activity concentration (AC50) in [4] was 0.457 µM (active).

Take `CC(C)c1ccc(/C=N/NC(=O)c2c(Cl)cnn2C)cc1`: the EC50 in test [23] was 9.9 µM (active); in [24], > 91.2 µM (inactive); in the test on H4, 27.5 µM (active); in test [25], 0.251 µM (active); in test [26] it was > 91.2 µM (inactive).
